These results are taken from PubChem BioAssay (NCI).

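Method: 48-hour compound exposure of cells in 96-well plates, five concentrations, linear interpolation of endpoints. At the TGI there is no net growth.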

Among the test systems are RPMI-8226 leukemia; HL-60(TB) leukemia; SK-MEL-5 melanoma; 786-0 renal; UACC-257 melanoma; OVCAR-3 ovarian; SNB-19 CNS; SK-MEL-28 melanoma; RXF 393 renal; MOLT-4 leukemia; HT29 colon; KM12 colon; IGROV1 ovarian; A498 renal.
Test in all cases: DTP human tumour cell line panel, 48 h

One may read the TGI as the concentration giving total growth inhibition. High values mean lower sensitivity of the cells, low ones greater sensitivity of the cells. Consider `CCOc1ccc(N(CC(=O)N2CC(=O)Nc3cc(C)c(C)cc32)C(C)=O)cc1`, for which the concentration for total growth inhibition (TGI) in the assay on RPMI-8226 leukemia, in the assay on HL-60(TB) leukemia, in the assay with SK-MEL-5 melanoma, with 786-0 renal, in the assay on UACC-257 melanoma and in the assay with OVCAR-3 ovarian was more than 100 µM throughout. Further, the total growth inhibition concentration (TGI) with SNB-19 CNS, in the assay on SK-MEL-28 melanoma, in the assay on RXF 393 renal, with MOLT-4 leukemia, in the assay with HT29 colon and in the assay on KM12 colon was more than 100 µM each time.

`CC(=O)NC(CCCNC(=O)N(C)N=O)C(=O)NCc1ccccc1` (stereo unspecified): the total growth inhibition concentration (TGI) in the assay on RPMI-8226 leukemia, with SK-MEL-5 melanoma, in the assay on IGROV1 ovarian, in the assay with 786-0 renal, with UACC-257 melanoma and with A498 renal was more than 100 µM throughout. In addition, the TGI in the assay with OVCAR-3 ovarian, with SNB-19 CNS, in the assay on SK-MEL-28 melanoma, in the assay on RXF 393 renal, in the assay on MOLT-4 leukemia and in the assay on HT29 colon was more than 100 µM in each case. For the same compound, the TGI with KM12 colon is more than 100 µM.

Regarding `O=C1CCC2(c3ccc(Cl)cc3)Nc3ccccc3N12` (stereo unspecified), the concentration for total growth inhibition (TGI) with RPMI-8226 leukemia, in the assay with HL-60(TB) leukemia, with IGROV1 ovarian, in the assay on 786-0 renal, in the assay on UACC-257 melanoma and in the assay on A498 renal was more than 100 µM in each case. Besides, the TGI in the assay on SNB-19 CNS, in the assay on SK-MEL-28 melanoma, with RXF 393 renal, in the assay with MOLT-4 leukemia, in the assay on HT29 colon and with KM12 colon was more than 100 µM in each case.

In the case of `N#C/C(c1nc2ccccc2[nH]1)=c1\s/c(=C/c2ccccc2)c(=O)n1-c1ccccc1`, the concentration for total growth inhibition (TGI) in the assay with RPMI-8226 leukemia, in the assay with HL-60(TB) leukemia, with SK-MEL-5 melanoma, in the assay with IGROV1 ovarian, with 786-0 renal and with UACC-257 melanoma was more than 100 µM throughout. The concentration for total growth inhibition (TGI) in the assay with A498 renal, in the assay on OVCAR-3 ovarian, in the assay on SNB-19 CNS, in the assay on SK-MEL-28 melanoma, in the assay on MOLT-4 leukemia and in the assay on KM12 colon was more than 100 µM in each case.

On to `COc1ccc(OC2(c3cc(OC)ccc3OC)OC(=O)c3ccccc32)cc1` (stereo unspecified), for which the TGI with RPMI-8226 leukemia, with HL-60(TB) leukemia, in the assay on SK-MEL-5 melanoma, in the assay on IGROV1 ovarian, in the assay on 786-0 renal and with UACC-257 melanoma was more than 100 µM each time. The TGI in the assay with A498 renal, with OVCAR-3 ovarian, with SNB-19 CNS, in the assay on SK-MEL-28 melanoma, with RXF 393 renal and with MOLT-4 leukemia was more than 100 µM in each case. Moreover, the total growth inhibition concentration (TGI) in the assay with HT29 colon and in the assay with KM12 colon was more than 100 µM throughout.

Consider `CC(C)N(C(=O)C12C3C4C5C3C1(C(=O)O)C5C42)C(C)C` (stereo unspecified), for which the total growth inhibition concentration (TGI) in the assay with RPMI-8226 leukemia, in the assay on HL-60(TB) leukemia, in the assay on SK-MEL-5 melanoma, with IGROV1 ovarian, with 786-0 renal and with UACC-257 melanoma was more than 100 µM throughout. Further, the TGI with A498 renal, with OVCAR-3 ovarian, in the assay with SNB-19 CNS, with SK-MEL-28 melanoma, in the assay on MOLT-4 leukemia and with HT29 colon was more than 100 µM throughout. For the same compound, the TGI in the assay on KM12 colon was more than 100 µM.

On to `Cc1cc(N(CCC#N)CCC#N)ccc1/C=C1N=C(/C=C\c2ccccc2)N(NC(=O)CC(=O)Nc2ccccc2Cl)C\1=O`, for which the total growth inhibition concentration (TGI) with RPMI-8226 leukemia, in the assay on HL-60(TB) leukemia, in the assay with SK-MEL-5 melanoma, in the assay on IGROV1 ovarian, in the assay on 786-0 renal and in the assay on UACC-257 melanoma was more than 100 µM each time. Also, the concentration for total growth inhibition (TGI) with A498 renal, in the assay with OVCAR-3 ovarian, with SNB-19 CNS, in the assay on SK-MEL-28 melanoma, with MOLT-4 leukemia and in the assay with HT29 colon was more than 100 µM each time. Further, the concentration for total growth inhibition (TGI) with KM12 colon is more than 100 µM.

On to `CC(=O)NC(CCCCNCc1ccccc1)C(=O)NCc1ccccc1` (stereo unspecified), for which the concentration for total growth inhibition (TGI) in the assay on RPMI-8226 leukemia, with SK-MEL-5 melanoma, in the assay on IGROV1 ovarian, in the assay on 786-0 renal, in the assay with UACC-257 melanoma and in the assay on A498 renal was more than 100 µM throughout. In addition, the TGI in the assay with OVCAR-3 ovarian, in the assay with SNB-19 CNS, in the assay with SK-MEL-28 melanoma, in the assay with RXF 393 renal, in the assay with MOLT-4 leukemia and in the assay with HT29 colon was more than 100 µM throughout. The concentration for total growth inhibition (TGI) in the assay with KM12 colon was more than 100 µM.

With `N#CC(NNC(=O)Cc1ccccc1)c1ccc([N+](=O)[O-])cc1` (stereo unspecified), the TGI with RPMI-8226 leukemia, in the assay on HL-60(TB) leukemia, in the assay on SK-MEL-5 melanoma, with IGROV1 ovarian, in the assay with 786-0 renal and with UACC-257 melanoma was more than 100 µM in each case. Besides, the TGI with SK-MEL-28 melanoma, in the assay with RXF 393 renal, with MOLT-4 leukemia, in the assay on HT29 colon and in the assay with KM12 colon was more than 100 µM in each case.

`CCc1cccc(C(C)C)c1NC(=O)/C(=N\NC(N)=O)C(C(=O)OC)c1cnc2ccccc2n1` (stereo unspecified): the concentration for total growth inhibition (TGI) in the assay with HL-60(TB) leukemia is 79.6 µM; in the assay with SK-MEL-5 melanoma, 35.1 µM; in the assay with IGROV1 ovarian, more than 100 µM; in the assay on 786-0 renal it was more than 100 µM; in the assay on UACC-257 melanoma, 94.4 µM; with A498 renal, more than 100 µM. For the same compound, the total growth inhibition concentration (TGI) in the assay with OVCAR-3 ovarian is 60.3 µM; with SNB-19 CNS, more than 100 µM; with SK-MEL-28 melanoma, more than 100 µM; in the assay on RXF 393 renal, more than 100 µM; in the assay on MOLT-4 leukemia it was more than 100 µM; with HT29 colon it was more than 100 µM. Further, in the assay with KM12 colon, the TGI was more than 100 µM.
